# Where two headings read alike, the source gives them in different places.
# Legend:
# [1] = tested on: HIV-1 RF virus in CEM-SS cells; test: HIV-1 cell protection assay (XTT dye reduction); type: cell-based
# Method: Six days later, 50 μl of XTT solution (1 mg/ml XTT tetrazolium and 20 nM phenazine methosulfate) were added to the wells and the plates were reincubated for four hours. Viability, as determined by the amount of XTT formazan produced, was quantified spectrophotometrically by absorbance at 450 nm.
# Data from CPE assays were expressed as the percent of formazan produced in compound-treated cells compared to formazan produced in wells of uninfected, compound-free cells. […] The 50% cytotoxicity concentration (CC50) was calculated as the concentration of compound that decreased the percentage of formazan produced in uninfected, compound-treated cells to 50% of that produced in uninfected, compound-free cells. The therapeutic index was calculated by dividing the cytotoxicity (CC50) by the antiviral activity (EC50).
# [2] = biological target: T1, Full-length wild type HIV-1 integrase (SF1) (Human immunodeficiency virus type 1 group M subtype B, UniProt P04585); test: Integrase strand-transfer scintillation proximity assay; type: biochemical; settings: strand-transfer SPA, 246 nM integrase, 50 nM host DNA, 37° C., 50 min; read-out: IC50
# T1 construct: made in house; host or cells: E. coli BL21 (DE3)
# Text: The annealed product represents preprocessed viral ds-DNA derived from the LTR U5 sequence of the viral genome. A ds-DNA control to test for non-specific interactions was made using a 3′ di-deoxy derivative of oligonucleotide #1 annealed to oligonucleotide #2. The CA overhang at the 5′ end of the non-biotinylated strand of the ds-DNA was created artificially by using a complimentary DNA oligonucleotide shortened by 2 base pairs. This configuration eliminates the requisite 3′ processing step of the integrase enzyme prior to the strand-transfer mechanism.
# The annealed product had overhanging 3′ ends of poly(dA). […] The radiolabeled product was purified using a NENSORB cartridge and stored in stabilized aqueous solution (PerkinElmer).
# Reagents: Streptavidin-coated polyvinyltoluene (PVT) SPA beads were purchased from Amersham Biosciences (Piscataway, N.J.). Cesium chloride was purchased from Shelton Scientific, Inc. (Shelton, Conn.). White, polystyrene, flat-bottom, non-binding surface, 96-well plates were purchased from Corning. All other buffer components were purchased from Sigma (St. Louis, Mo.) unless otherwise indicated.
# Enzyme Construction: Full-length wild type HIV-1 integrase (SF1) sequence (amino acids 1-289) was constructed in a pET24a vector (Novagen, Madison, Wis.).
# Enzyme Purification: Full length wild-type HIV Integrase was expressed in E. coli BL21 (DE3) cells and induced with 1 mM isopropyl-1 thio-β-D-galactopyranoside (IPTG) when cells reached an optical density between 0.8-1.0 at 600 nm. Cells were lysed by microfluidation in 50 mM HEPES pH 7.0, 75 mM NaCl, 5 mM DTT, 1 mM 4-(2-Aminoethyl)benzenesulfonylfluoride HCl (AEBSF). Lysate was then centrifuged 20 minutes at 11 k rpm in GSA rotor in Sorvall RC-5B at 4° C. Supernant was discarded and pellet resuspended in 50 mM HEPES pH 7.0, 750 mM NaCl, 5 mM DTT, 1 mM AEBSF and homogenized in a 40 mL Dounce homogenizer for 20 minutes on ice. Homogenate was then centrifuged 20 minutes at 11 k rpm in SS34 rotor in Sorvall RC-5B at 4° C. Supernant was discarded and pellet resuspended in 50 mM HEPES pH 7.0, 750 mM NaCl, 25 mM CHAPS, 5 mM DTT, 1 mM AEBSF. Preparation was then centrifuged 20 minutes at 11 k rpm in SS34 rotor in Sorvall RC-5B at 4° C.
# Supernant was then diluted 1:1 with 50 mM HEPES pH 7.0, 25 mM CHAPS, 1 mM DTT, 1 mM AEBSF and loaded onto a Q-Sepharose column pre-equilibrated with 50 mM HEPES, pH 7.0, 375 mM NaCl, 25 mM CHAPS, 1 mM DTT, 1 mM AEBSF. The flow through peak was collected and NaCl diluted to 0.1 M with 50 mM HEPES pH 7.0, 25 mM CHAPS, 1 mM DTT, 0.5 mM AEBSF and loaded onto a SP-Sepharose column pre-equilibrated with 50 mM HEPES pH 7.0, 100 mM NaCl, 25 mM CHAPS, 1 mM DTT, 0.5 mM AEBSF. After washing the column with the equilibration buffer, a 100 to 400 mM NaCl gradient was run. The eluted integrase was concentrated and run on a S-300 gel diffusion column using 50 mM HEPES pH 7.0, 500 mM NaCl, 25 mM CHAPS, 1 mM DTT, 0.5 mM AEBSF. […] All columns were run in a 4° C. cold room.
# Viral DNA Bead Preparation: Streptavidin-coated SPA beads were suspended to 20 mg/mL in 25 mM 3-morpholinopropanesulfonic acid (MOPS) (pH 7.2) and 1.0% NaN3. Biotinylated viral DNA was bound to the hydrated SPA beads in a batch process by combining […] of ds-DNA to 1 mg of suspended SPA beads (10 μL of 50 μM viral DNA to 1 mL of 20 mg/mL SPA beads). The mixture was incubated at 22° C. for a minimum of 20 min. with occasional mixing followed by centrifugation at 2500 rpm for 10 min.
# [3] = Human immunodeficiency virus 1, 144 h, RF strain of HIV-1, CEM-SS cells, XTT read-out after six days, read-out: EC50
# [4] = Human immunodeficiency virus 1, CEM-SS, 144 h
Structure (SMILES),"EC50 [1, 3]",IC50 [2],"EC50 [1, 4]"
"CN(C1CCCC1)S(=O)(=O)c1cn(Cc2ccc(F)cc2)c2cnc3c(c12)CCN(O)C3=O [Example 21, N-cyclopentyl-3-(4-fluorobenzyl)-7-hydroxy-N-methyl-6-oxo-6,7,8,9-tetrahydro-3H-pyrrolo[2,3-c]-1,7-naphthyridine-1-sulfonamide]",120 nM,905 nM,
"CCN(C)Cc1cn(Cc2ccc(F)cc2)c2cnc3c(c12)CCN(O)C3=O [Example 71, 1-{[ethyl(methyl)amino]methyl}-3-(4-fluorobenzyl)-7-hydroxy-3,7,8,9-tetrahydro-6H-pyrrolo[2,3-c]-1,7-naphthyridin-6-one]",8 nM,27 nM,
"Cc1cc2c(ncc3c2c(CN2CCOCC2)cn3Cc2ccc(F)cc2)c(=O)n1O [Example 43, 3-(4-fluorobenzyl)-7-hydroxy-8-methyl-1-(morpholin-4-ylmethyl)-3,7-dihydro-6H-pyrrolo[2,3-c]-1,7-naphthyridin-6-one]",0.41 nM,9.36 nM,
"Cc1cc2c(ncc3c2c(CN2CCN(C)C(=O)C2)cn3Cc2ccc(F)cc2)c(=O)n1O [Example 96, 3-(4-fluorobenzyl)-7-hydroxy-8-methyl-1-[(4-methyl-3-oxopiperazin-1-yl)methyl]-3,7-dihydro-6H-pyrrolo[2,3-c]-1,7-naphthyridin-6-one]",5 nM,10 nM,
"O=C1c2ncc3c(c(CCN4CCC(F)(F)C4)cn3Cc3ccc(F)cc3)c2CCN1O [Example 109, 3-(4-fluorobenzyl)-1-(2-(3,3-difluoropyrrolidin-1-yl)ethyl)-7-hydroxy-8,9-dihydro-3H-pyrrolo[2,3-c][1,7]naphthyridin-6(7H)-one]",1 nM,14 nM,
"O=C1c2ncc3c(ccn3Cc3ccccn3)c2CCN1O [Example 87, 7-hydroxy-3-(pyridin-2-ylmethyl)-3,7,8,9-tetrahydro-6H-pyrrolo[2,3-c]-1,7-naphthyridin-6-one]",35 nM,89 nM,
"CN(C)C(=O)[C@@H]1CCCN1Cc1cn(Cc2ccc(F)cc2)c2cnc3c(c12)CCN(O)C3=O [Example 41, 1-{[3-(4-fluorobenzyl)-7-hydroxy-6-oxo-6,7,8,9-tetrahydro-3H-pyrrolo[2,3-c]-1,7-naphthyridin-1-yl]methyl}-N,N-dimethyl-L-prolinamide]",29 nM,28.1 nM,
"CN(C)C(=O)c1cccc(-c2cn(Cc3ccc(F)cc3)c3cnc4c(=O)n(O)ccc4c23)c1 [Example 8, 3-[3-(4-fluorobenzyl)-7-hydroxy-6-oxo-6,7-dihydro-3H-pyrrolo[2,3-c]-1,7-naphthyridin-1-yl]-N,N-dimethylbenzamide]",5 nM,37 nM,
"CC(CN(C)C)NCc1cn(Cc2ccc(F)cc2)c2cnc3c(=O)n(O)ccc3c12 (centres unmarked) [Example 4, 1-({[2-(dimethylamino)-1-methylethyl]amino}methyl)-3-(4-fluorobenzyl)-7-hydroxy-3,7-dihydro-6H-pyrrolo[2,3-c]-1,7-naphthyridin-6-one]",51 nM,,
"CCCCC1Cc2c(ncc3c2ccn3Cc2ccc(F)cc2)C(=O)N1O (centres unmarked) [Example 1, 8-butyl-3-(4-fluorobenzyl)-7-hydroxy-3,7,8,9-tetrahydro-6H-pyrrolo[2,3-c]-1,7-naphthyridin-6-one]",460 nM,,
"N#Cc1cc(F)ccc1Cn1ccc2c3c(ncc21)C(=O)N(O)CC3 [Example 91, 5-fluoro-2-[(7-hydroxy-6-oxo-6,7,8,9-tetrahydro-3H-pyrrolo[2,3-c]-1,7-naphthyridin-3-yl)methyl]benzonitrile]",,,2 nM
"COCCN(C)Cc1cn(Cc2ccc(F)cc2)c2cnc3c(c12)CCN(O)C3=O [Example 77, 3-(4-fluorobenzyl)-7-hydroxy-1-{[(2-methoxyethyl)(methyl)amino]methyl}-3,7,8,9-tetrahydro-6H-pyrrolo[2,3-c]-1,7-naphthyridin-6-one]",,,2 nM
"O=c1c2ncc3c(c(CN4CCC(CO)CC4)cn3Cc3ccc(F)cc3)c2ccn1O [Example 5, 3-(4-fluorobenzyl)-7-hydroxy-1-{[4-(hydroxymethyl)piperidin-1-yl]methyl}-3,7-dihydro-6H-pyrrolo[2,3-c]-1,7-naphthyridin-6-one]",12 nM,,
"C[C@H](O)CNCc1cn(Cc2ccc(F)cc2)c2cnc3c(=O)n(O)ccc3c12 [Example 2, 3-(4-fluorobenzyl)-7-hydroxy-1-({[(2S)-2-hydroxypropyl]amino}methyl)-3,7-dihydro-6H-pyrrolo[2,3-c]-1,7-naphthyridin-6-one]",60.9 nM,,
"O=C1c2ncc3c(c(CN4CCCCC4)cn3Cc3ccc(F)cc3)c2CCN1O [Example 38, 3-(4-fluorobenzyl)-7-hydroxy-1-(piperidin-1-ylmethyl)-3,7,8,9-tetrahydro-6H-pyrrolo[2,3-c]-1,7-naphthyridin-6-one]",,,5.4 nM
"CN(C)Cc1cn(Cc2ccc(F)cc2)c2cnc3c(c12)CCN(O)C3=O [Example 12, 1-[(dimethylamino)methyl]-3-(4-fluorobenzyl)-7-hydroxy-3,7,8,9-tetrahydro-6H-pyrrolo[2,3-c]-1,7-naphthyridin-6-one]",,,13 nM
"O=C1c2ncc3[nH]ccc3c2CCN1O [Example 83, 7-hydroxy-3,7,8,9-tetrahydro-6H-pyrrolo[2,3-c]-1,7-naphthyridin-6-one]",14 nM,,
"CCN(C)Cc1cn(Cc2ccc(F)cc2)c2cnc3c(=O)n(O)ccc3c12 [Example 3, 1-{[ethyl(methyl)amino]methyl}-3-(4-fluorobenzyl)-7-hydroxy-3,7-dihydro-6H-pyrrolo[2,3-c]-1,7-naphthyridin-6-one]",2.5 nM,,
"O=C1c2ncc3c(c(S(=O)(=O)N4CCCC4)cn3Cc3ccc(F)cc3)c2CCN1O [Example 13, 3-(4-fluorobenzyl)-7-hydroxyl(pyrrolidin-1-ylsulfonyl)-3,7,8,9-tetrahydro-6H-pyrrolo[2 3-c]-1,7-naphthyridin-6-one]",,,3 nM
"O=c1c2ncc3c(c(CN4CCCC4)cn3Cc3ccc(F)cc3)c2ccn1O [Example 6, 3-(4-fluorobenzyl)-7-hydroxy-1-(pyrrolidin-1-ylmethyl)-3,7-dihydro-6H-pyrrolo[2,3-c]-1,7-naphthyridin-6-one]",5.3 nM,,
"O=C1c2ncc3c(c(CN4CCC(F)(F)C4)cn3Cc3ccc(F)cc3)c2CCN1O [Example 37, 1-[(3,3-difluoropyrrolidin-1-yl)methyl]-3-(4-fluorobenzyl)-7-hydroxy-3,7,8,9-tetrahydro-6H-pyrrolo[2,3-c]-1,7-naphthyridin-6-one]",,,1.5 nM

# From US20070099915A1, “INHIBITORS OF THE HIV INTEGRASE ENZYME” (PFIZER INC., priority 2005, published 2007)
